Results on three compounds are retold here after US11674182B2, “Biomarker for HER2-positive cancer and anti-HER2 therapy and applications thereof” (INDUSTRY-UNIVERSITY COOPERATION FOUNDATION HANYANG …, priority 2017, dated 2023).

The target of one test is T1, ADAM10 (Homo sapiens, UniProt O14672).
T1 sequence (O14672 214-748): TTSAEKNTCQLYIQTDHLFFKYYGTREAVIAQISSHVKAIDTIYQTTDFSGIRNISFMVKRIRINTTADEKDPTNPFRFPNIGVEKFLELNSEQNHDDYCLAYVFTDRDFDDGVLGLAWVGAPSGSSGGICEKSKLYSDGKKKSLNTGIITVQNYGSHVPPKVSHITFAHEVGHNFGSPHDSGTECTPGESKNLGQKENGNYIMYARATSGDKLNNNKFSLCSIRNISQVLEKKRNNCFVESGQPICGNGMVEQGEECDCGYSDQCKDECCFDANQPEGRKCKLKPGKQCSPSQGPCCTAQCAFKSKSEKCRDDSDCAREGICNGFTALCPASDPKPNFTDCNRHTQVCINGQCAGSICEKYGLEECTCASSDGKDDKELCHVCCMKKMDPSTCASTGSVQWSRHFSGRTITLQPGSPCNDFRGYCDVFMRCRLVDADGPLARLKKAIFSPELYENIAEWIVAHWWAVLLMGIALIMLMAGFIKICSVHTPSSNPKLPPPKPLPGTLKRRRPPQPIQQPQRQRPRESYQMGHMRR
Conditions: cited from earlier work.

The test system of the next test is ADAM10 and ADAM17. The settings on record: HER2+ metastatic breast cancer patients expressing p95-HER2; trial reported to have failed; cited from earlier work.
Another test deals with BT474 cells. As to the kind of experiment: Cell viability test (SRB) and colony formation assay in BT474 cells. The format is cell-based, human. The settings on record: MEL-18-depleted BT474 cells; 1 μM GW280264 with trastuzumab, 5 days. The method, then:
An in vitro toxicity test analysis kit (Sulforhodamine B based, TOX6) was purchased from Sigma-Aldrich (St. Louis, Mo., USA), and used according to the manufacturer's protocols. […] After five days, the cells were fixed by layering a TCA solution in the medium, and incubated at 4° C. for 1 hour. The fixed cells were washed with water several times, and stained with a 0.4% sulforhodamine B solution for 30 minutes. Subsequently, the stained cells were washed with a 1% acetic acid solution until remaining salts were no longer observed, and the incorporated dye was dissolved in a 10 mM Tris solution while gently stirring. The prepared plate was detected using a microplate reader at 490 nm.
After 2 weeks, the cells were fixed with a 4% formaldehyde solution for 5 minutes, washed with PBS, and stained with 0.02% crystal violet (C0775, Sigma-Aldrich) for 1 to 2 hours at room temperature and then washed again. The prepared plates were dried thoroughly, and the experiment was carried out.

The subject of a further test is ErbB-PI3K-AKT signaling. The experiment in a line: Immunoblotting / ELISA of ErbB signaling and ErbB ligand secretion in BT474 cells. The class given is cell-based, human. The settings on record: MEL-18-knockdown BT474 cells; 1 μM GW280264, 24 hours. As to the method: Cells were lysed in RIPA buffer, and the lysates were subjected to immunoblotting and immunoprecipitation as described in [M. H. Cho et al, Nat Commun 6, 7821(2015)] (60). For immunoblotting, the cell lysates were separated by 6% to 15% SDS-polyacrylamide gel electrophoresis (PAGE) and transferred to nitrocellulose membranes. After blocking the membranes with 5% skin milk, the membranes were incubated with primary antibodies overnight at 4° C., and then reacted with horseradish peroxidase (HRP)-conjugated secondary antibodies for 1 hour at room temperature. Bands were visualized using an ECL detection system (GE Healthcare, Chalfont St. Giles, UK).
The levels of the HER ligands HB-EGF and heregulinl (heregulinl, NRG1-beta1, NRG1) were measured in cell culture supernatants using ELISA (BosterBio and R&D Systems) according to the manufacturer's protocols.
In the case of the R&D Systems kit, an ELISA plate was coated overnight with captured antibodies and blocked with 3% BSA for 1 hour. […]
In the case of the BosterBio ELISA kit, the antibody-coated plate was directly filled with samples and standards, and incubated for 90 minutes. […] After this step, the plates for both kits were filled with a substrate solution for 20 minutes, the reaction was stopped using a stop solution for 20 minutes, and the absorbance was measured using a microplate reader at a wavelength of 450 nm. […]
Background: Immunoblotting shows a protein as a band on a membrane.

As for `CNC(=O)[C@@H](NC(=O)[C@H](CCCc1ccccc1)[C@H](C)N(O)C=O)C(C)(C)C` [GI254023, (2R)—N-[(1S)-2,2-dimethyl-1-[(methylamino)carbonyl]-propyl]-2-[(1S)-1-[formyl(hydroxy)amino]ethyl]-5-phenylpentanamide], at ADAM10, the “selectivity to ADAM10 with respect to ADAM17” value is “about 100 fold”.
Consider `COC(=O)N1CC2(CC2)C[C@H](C(=O)NO)[C@H]1C(=O)N1CCN(c2ccccc2)CC1` [INCB7839, (6S,7S)-7-[(hydroxyamino)carbonyl]-6-[(4-phenyl-1-piperazinyl)carbonyl]-5-azaspiro[2.5]octane-5-carboxylic acid methyl ester], for which, in the test with ADAM10 and ADAM17, the “clinical therapeutic effect in combination with Herceptin” value was “improves a clinical therapeutic effect of Herceptin”.
Consider `CCC[C@@H]([C@@H](CC(C)C)C(=O)N[C@@H](CCCCNC(=O)OCc1ccccc1)C(=O)Nc1nccs1)N(O)C=O` [GW280264, benzyl N-[(5S)-5-[[(2R,3S)-3-(Formylhydroxyamino)-2-(2-methylpropyl)-1-oxohexyl]amino]-6-oxo-6-(2-thiazolylamino)hexyl]-carbamate], for which the “anti-proliferative effect of trastuzumab on co-treatment with GW280264” value with BT474 cells is recorded as “resistance to trastuzumab is improved”. Moreover, the “activation of ErbB-PI3K-AKT signaling and secretion of ErbB ligands” value in the test on ErbB-PI3K-AKT signaling is on record as “reversing the activation of ErbB-PI3K-AKT signaling”.
